# Counter-ions that a name gives are not always drawn. Like-named read-outs stand apart in the source and are kept apart here.
# How the values were obtained:
# [1] = tested on: “blank”-transfected COS-7 cells; assay: cAMP formation in control COS-7 cells; type: cell-based; details: 1 μM
# Experimental: (§1) The entire coding region of the cDNAs of 5-HT4(a), 5-HT4(b), 5-HT4(c) and 5-T4(d) was subcloned into a mammalian expression vector pRC/CMV (Invitrogen, Carlsbad, Calif.). The transfections were carried out using polyethyleneimine (PEI) as described in Boussif et al. (1995). The cells were transfected using a mixture of DNA and of PEI in a ratio of 20 μmol of PEI/mg of DNA in 0.9% NaCl. For the radioligand binding assays, the COS-7 cells were seeded into culture flasks of 1.5×10^4 mm^2 one day before the transfection, at a density of 1×10^7 cells/flask, incubated for six hours with plasmid DNA (150 μg/flask) and collected 48 hours after transfection. For the measurement of cAMP formation, the COS-7 cells were seeded onto twelve-well plates one day before transfection, at a density of 5×10^5 cells/well, incubated for six hours with plasmid DNA (4 to 8 μg/well according to the experiments) and assayed 24 hours after the transfection. The cells transfected with the receptor 5-HT4 cDNA constructs were compared with the “blank”-transfected cells, which were exposed to the unmodified pRC/CMV plasmid.
# (§2) To measure intracellular cAMP accumulation, the transiently transfected COS-7 cells were incubated, 24 hours after transfection, in Dulbecco's modified Eagle medium (DMEM) containing 5 mM theophylline, 10 mM HEPES and 10 μM pargyline for 15 minutes at 37° C., in the presence of 5% CO2. […] The reaction was stopped by aspiration of the medium and addition of 500 μl of ice-cold ethanol. After one hour at room temperature, the cells were scraped, and everything was collected and freeze-dried. The pellet was resuspended in 350 μl of PBS and centrifuged for 5 min at 300 g. The cAMP was quantified in the supernatant using a radioimmunological assay (E.R.I.A. assay kit from Pasteur Diagnostics 79830). Student's t tests were carried out using the program Quick TEst.
# receptor 5-HT4(a) [2] = biological target: T1, receptor 5-HT4(a) (Homo sapiens, UniProt Q13639); assay: cAMP formation in transiently transfected COS-7 cells; type: cell-based; details: COS-7, 1 μM agonist, 15 minutes
# T1 construct: The entire coding region of the cDNAs of 5-HT4(a), 5-HT4(b), 5-HT4(c) and 5-T4(d) was subcloned; expressed in transfected cells; host or cells: COS-7 cells, transient, pRC/CMV vector
# Experimental: as §1, §2
# [3] = tested on: cells expressing the isoforms of the receptor 5-HT4; assay: cAMP formation in transiently transfected COS-7 cells, statement for all isoforms together; type: cell-based, human
# Experimental: The entire coding region of the cDNAs of 5-HT4(a), 5-HT4(b), 5-HT4(c) and 5-T4(d) was subcloned into a mammalian expression vector pRC/CMV (Invitrogen, Carlsbad, Calif.). The transfections were carried out using polyethyleneimine (PEI) as described in Boussif et al. (1995). The cells were transfected using a mixture of DNA and of PEI in a ratio of 20 μmol of PEI/mg of DNA in 0.9% NaCl. […] The cells transfected with the receptor 5-HT4 cDNA constructs were compared with the “blank”-transfected cells, which were exposed to the unmodified pRC/CMV plasmid. […] The reaction was stopped by aspiration of the medium and addition of 500 μl of ice-cold ethanol. After one hour at room temperature, the cells were scraped, and everything was collected and freeze-dried. The pellet was resuspended in 350 μl of PBS and centrifuged for 5 min at 300 g. The cAMP was quantified in the supernatant using a radioimmunological assay (E.R.I.A. assay kit from Pasteur Diagnostics 79830). Student's t tests were carried out using the program Quick TEst.
# receptor 5-HT4(b) = biological target: T2, receptor 5-HT4(b) (Homo sapiens, UniProt Q13639); assay: [3H]GR113808 radioligand binding, membranes of transiently transfected COS-7 cells
# T2 construct: The entire coding region of the cDNAs of 5-HT4(a), 5-HT4(b), 5-HT4(c) and 5-T4(d) was subcloned; expressed in transfected cells; host or cells: COS-7 cells, transient, pRC/CMV vector; cDNA amplified from human brain and ileum RNA
# Experimental: as §1
# (§3) Each flask of cells intended for the radioligand binding assays was washed twice with a phosphate buffer (PBS). The cells were then scraped, collected and centrifuged at 300 g for five minutes. The pellet was resuspended in 2.5 ml of ice-cold HEPES buffer (50 mM, pH 7.4) and homogenized with an Ultraturax tissue grinder. The lysate was then centrifuged at 40,000 g for 20 minutes at 4° C. The resulting pellet was resuspended in 15 volumes of HEPES buffer (50 mM, pH 7.4). The membrane preparations were maintained in ice and used within two hours for radioligand binding assays. The protein concentrations were determined by the method of Lowry et al., 1951, using bovine serum albumin as standard.
# (§4) The saturation studies were performed using [^3H] GR113808 at 9 different concentrations ranging from 0.01 to 3.5 nM. The tubes were incubated at 25° C. for 30 minutes. The reaction-was stopped by rapid filtration, under vacuum, through Whatman GF/B filter paper using the Brandel 48R cell harvester. The filters were presoaked in a solution of PEI (0.1%) to reduce the binding to the filters. The filters were then washed with an ice-cold buffer (50 mM Tris-HCl, pH 7.4) and placed in 4 ml of “ready safe” scintillation cocktail (Beckman, Fullerton, Calif.) overnight. The radioactivity was measured using a Beckman LS 6500 C liquid scintillation counter. The binding data were analysed by computer-assisted nonlinear regression analysis (Graph Pad Prism Program, Graph Pad Software, Inc., San Diego, Calif.).
# (§5) The experiments correspond to the competition of various compounds for [^3H]GR113808 binding to membranes of transiently transfected COS-7 cells. […] The estimations of affinity are given as Ki values in nM, and are determined from IC50 values obtained by computer-assisted nonlinear curve analysis (GraphPad, Prism Software). The Ki values are representative of at least two determinations.
# receptor 5-HT4(a) [4] = biological target: T1, receptor 5-HT4(a); assay: as above
# Experimental: as §1, §3, §4, §5
# receptor 5-HT4(d) [5] = biological target: T3, receptor 5-HT4(d) (Homo sapiens, UniProt Q13639); assay: as above; parameters: The entire coding region of the cDNAs of 5-HT4(a), 5-HT4(b), 5-HT4(c) and 5-T4(d) was subcloned; expressed in transfected cells; host or cells: COS-7 cells, transient, pRC/CMV vector; cDNA amplified from human brain and ileum RNA
# Experimental: as §1, §3, §4, §5
# receptor 5-HT4(c) [6] = biological target: T4, receptor 5-HT4(c) (Homo sapiens, UniProt Q13639); assay: as above; parameters: The entire coding region of the cDNAs of 5-HT4(a), 5-HT4(b), 5-HT4(c) and 5-T4(d) was subcloned; expressed in transfected cells; host or cells: COS-7 cells, transient, pRC/CMV vector; cDNA amplified from human brain and ileum RNA
# Experimental: as §1, §3, §4, §5
# receptor 5-HT4(d) [7] = biological target: T3, receptor 5-HT4(d); assay: [3H]GR113808 saturation binding, membranes of stably transfected CHO cells; parameters: The entire coding region of the cDNAs of 5-HT4(a), 5-HT4(b), 5-HT4(c) and 5-T4(d) was subcloned; expressed in transfected cells; pRC/CMV vector; cDNA amplified from human brain and ileum RNA; details: 30 minutes at 25° C., read-out: Kd, saturation analysis
# Experimental: (§6) The entire coding region of the 5-HT4(c) and 5-HT4(d) cDNAs was subcloned into a mammalian expression vector pRC/CMV (Invitrogen, Carlsbad, Calif.). The CHO cells are stably transfected by electroporation (250 V, 960 μF) with the plasmid PRc/CMV, containing the clone h5-HT4(c) or h5-HT4(d), cleaved with the restriction enzyme Kpn1 (10 μg of plasmid for 10^7 cells). The cells are cultured in HAM-F12 medium supplemented with 10% of heat-inactivated foetal calf serum. […] Twelve days later, the clones are individualized and cultured in 12-well plates. Clone selection is carried out by studying the stimulation of the cAMP formed in the presence of 1 μM serotonin. […]
# (§7) Each flask of cells intended for the radioligand binding assays was washed twice with a phosphate buffer (PBS). […] The protein concentrations were determined by the method of Lowry et al., 1951, using bovine serum albumin as standard.
# (§8) The radioligand binding studies were carried out in 500 μl of buffer (50 mM HEPES, pH 7.4) [lacuna] […] The filters were then washed with an ice-cold buffer (50 mM Tris-HCl, pH 7.4) and placed in 4 ml of “ready safe” scintillation cocktail (Beckman, Fullerton, Calif.) overnight. The radioactivity was measured using a Beckman LS 6500 C liquid scintillation counter. […]
# receptor 5-HT4(c) [8] = biological target: T4, receptor 5-HT4(c); assay: as above; parameters: The entire coding region of the cDNAs of 5-HT4(a), 5-HT4(b), 5-HT4(c) and 5-T4(d) was subcloned; expressed in transfected cells; pRC/CMV vector; cDNA amplified from human brain and ileum RNA; details: 30 minutes at 25° C., read-out: Kd, saturation analysis
# Experimental: as §6, §7, §8
# [9] = 5-HT4(b), COS-7 membranes, [3H]GR113808 at 50% of Kd, read-out: Ki, competition for [3H]GR113808 binding
# [10] = 5-HT4(a), COS-7 membranes, [3H]GR113808 at 50% of Kd, read-out: Ki, competition for [3H]GR113808 binding
# [11] = 5-HT4(d), COS-7 membranes, [3H]GR113808 at 50% of Kd, read-out: Ki, competition for [3H]GR113808 binding
# [12] = 5-HT4(c), COS-7 membranes, [3H]GR113808 at 50% of Kd, read-out: Ki, competition for [3H]GR113808 binding
# [13] = read-out: Ki, competition for [3H]GR113808 binding
# T2 sequence (Q13639 whole entry): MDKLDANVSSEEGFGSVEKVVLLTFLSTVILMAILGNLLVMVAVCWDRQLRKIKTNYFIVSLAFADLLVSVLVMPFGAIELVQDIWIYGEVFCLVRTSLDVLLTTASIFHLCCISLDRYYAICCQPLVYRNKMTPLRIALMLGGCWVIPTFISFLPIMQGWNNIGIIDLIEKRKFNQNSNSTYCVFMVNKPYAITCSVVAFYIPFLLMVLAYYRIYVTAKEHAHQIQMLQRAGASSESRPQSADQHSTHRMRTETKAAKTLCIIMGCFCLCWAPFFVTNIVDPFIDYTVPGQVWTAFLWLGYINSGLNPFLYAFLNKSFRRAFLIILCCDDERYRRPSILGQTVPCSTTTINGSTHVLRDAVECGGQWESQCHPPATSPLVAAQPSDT
# T1 sequence (Q13639 1-387 isoform Q13639-2): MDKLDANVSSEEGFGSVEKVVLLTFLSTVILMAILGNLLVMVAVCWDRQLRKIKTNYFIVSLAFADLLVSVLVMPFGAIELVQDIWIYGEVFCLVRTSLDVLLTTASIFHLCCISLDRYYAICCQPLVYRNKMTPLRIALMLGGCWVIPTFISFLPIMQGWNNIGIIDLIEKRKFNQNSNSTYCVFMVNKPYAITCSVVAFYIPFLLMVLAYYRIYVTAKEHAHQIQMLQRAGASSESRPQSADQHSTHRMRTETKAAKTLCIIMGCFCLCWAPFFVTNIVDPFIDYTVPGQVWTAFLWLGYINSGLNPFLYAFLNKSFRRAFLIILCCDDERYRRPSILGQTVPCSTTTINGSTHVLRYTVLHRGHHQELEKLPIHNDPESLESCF
# T4 sequence (Q13639 1-380 isoform Q13639-4): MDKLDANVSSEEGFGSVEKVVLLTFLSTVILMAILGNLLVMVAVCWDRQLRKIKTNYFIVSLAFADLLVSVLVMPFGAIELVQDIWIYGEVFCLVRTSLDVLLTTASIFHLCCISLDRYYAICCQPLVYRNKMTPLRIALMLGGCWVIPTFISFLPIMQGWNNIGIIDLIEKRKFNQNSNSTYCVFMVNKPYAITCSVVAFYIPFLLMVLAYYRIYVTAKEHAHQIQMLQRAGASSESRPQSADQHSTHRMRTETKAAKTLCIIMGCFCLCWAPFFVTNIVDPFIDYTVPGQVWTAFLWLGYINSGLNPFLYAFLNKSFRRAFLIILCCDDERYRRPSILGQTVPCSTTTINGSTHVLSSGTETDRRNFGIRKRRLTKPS
# T3 sequence (Q13639 1-360 isoform Q13639-3): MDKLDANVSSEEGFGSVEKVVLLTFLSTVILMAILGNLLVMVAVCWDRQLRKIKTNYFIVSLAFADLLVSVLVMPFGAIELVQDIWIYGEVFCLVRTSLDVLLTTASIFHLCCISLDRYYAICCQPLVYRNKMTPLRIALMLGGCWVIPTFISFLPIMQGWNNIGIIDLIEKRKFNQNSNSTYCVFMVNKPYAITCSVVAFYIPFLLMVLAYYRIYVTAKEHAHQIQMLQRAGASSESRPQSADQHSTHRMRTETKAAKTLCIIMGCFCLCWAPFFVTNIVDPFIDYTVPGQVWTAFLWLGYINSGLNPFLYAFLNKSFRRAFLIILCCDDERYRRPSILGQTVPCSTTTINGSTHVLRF
structure (smiles),measurement,setting,value
"COc1cc(N)c(Cl)cc1C(=O)NC1CCN2CCCC1C2 (single isomer, unassigned; (+)) [Renzapride, (+)endo-4-amino-5-chloro-2-methoxy-N-(1-azabicyclo[3.3.1]non-4-yl)benzamide, hydrochloride]",effect on basal adenylate cyclase activity / basal cAMP levels,[1],no significant effect
same,increase in cAMP concentration,receptor 5-HT4(a) [2],56%
"COc1cc(N)c(Cl)cc1C(=O)OCCN1CCCCC1 [ML10302, 2-(1-piperidyl)ethyl 4-amino-5-chloro-2-methoxy-benzoate]",effect on basal adenylate cyclase activity / basal cAMP levels,[1],no significant effect
same,stimulatory effect on cAMP as % of the stimulatory effect of 5-HT,"[3]; 1 μM, COS-7 cells expressing the isoforms of the receptor 5-HT4",28 to 34%
same,antagonism of the capacity of 5-HT (1 μM) to increase basal cAMP levels,"[3]; preincubation with 1 μM prior to 5-HT, COS-7 cells expressing the isoforms",significantly antagonizes
CCn1c(=O)n(C(=O)N[C@H]2C[C@H]3CC[C@@H](C2)N3C)c2ccccc21 [BIMU1],Ki,receptor 5-HT4(b),123 ± 9 nM
same,Ki,receptor 5-HT4(a) [4],373 ± 119 nM
same,Ki,receptor 5-HT4(d) [5],38.8 ± 12 nM
same,Ki,receptor 5-HT4(c) [6],66 ± 8.37 nM
"Cn1cc(C(=O)OCC2CCN(CCNS(C)(=O)=O)CC2)c2ccccc21 [GR113808, ([1-[2-(methylsulphonyl)amino]ethyl]-4-piperidyl)methyl 1-methyl-1H-indole-3-carboxylate]",Ki,receptor 5-HT4(b); [9],0.53 ± 0.1 nM
same,Ki,receptor 5-HT4(a) [4]; [10],0.33 ± 0.033 nM
same,Ki,receptor 5-HT4(d) [5]; [11],0.078 nM
same,Ki,receptor 5-HT4(c) [6]; [12],0.41 ± 0.13 nM
"COc1cc(N)c(Cl)cc1C(=O)NC1CN2CCC1CC2 (stereo not drawn) [Zacopride, 4-amino-5-chloro-2-methoxy-N-(1-azabicyclo-[2,2,2]octo-3-yl)benzamide, hydrochloride]",Ki,receptor 5-HT4(b); [13],11500 ± 950 nM
same,Ki,receptor 5-HT4(a) [4]; [10],7750 ± 1620 nM
same,Ki,receptor 5-HT4(d) [5]; [11],3600 ± 1840 nM
same,Ki,receptor 5-HT4(c) [6]; [13],10600 ± 2160 nM
"COc1ccc2[nH]cc(CCN)c2c1 [5-MeOT, 5-methoxytryptamine]",Ki,receptor 5-HT4(b); [9],2440 ± 510 nM
same,Ki,receptor 5-HT4(a) [4]; [10],2080 ± 508 nM
same,Ki,receptor 5-HT4(d) [5]; [11],553 ± 149 nM
same,Ki,receptor 5-HT4(c) [6]; [12],1020 ± 236 nM
Cn1cc(C(=O)OCC2CCN(CCNS(C)(=O)=O)CC2)c2ccccc21 [[^3H]GR113808],Kd,"receptor 5-HT4(b); 5-HT4(b), COS-7 membranes, 30 minutes at 25° C., read-out: Kd, saturation analysis",0.62 ± 0.05 nM
same,Kd,"receptor 5-HT4(a) [4]; 5-HT4(a), COS-7 membranes, 30 minutes at 25° C., read-out: Kd, saturation analysis",0.23 ± 0.06 nM
same,Kd,receptor 5-HT4(d) [7],0.23 ± 0.03 nM
same,Kd,receptor 5-HT4(c) [8],0.42 ± 0.04 nM
same,Kd,"receptor 5-HT4(d) [5]; 5-HT4(d), COS-7 membranes, 30 minutes at 25° C., read-out: Kd, saturation analysis",0.14 ± 0.05 nM
same,Kd,"receptor 5-HT4(c) [6]; 5-HT4(c), COS-7 membranes, 30 minutes at 25° C., read-out: Kd, saturation analysis",0.3 ± 0.08 nM

# — patent US6506580B1, “Splice variants for human 5-HT4 serotonin receptor and their applications, in particular for screening” (Institut National de la Sante et de la Recherche Medicale …, priority 1997, dated 2003)
